Laboratory results: ChEMBL document CHEMBL1155252 (Bioorg Med Chem, 2009)

Columns and labels:
[1] = molecular target: 3',5'-cyclic-AMP phosphodiesterase 4B (Homo sapiens, UniProt Q07343); assay: Inhibition of PDE4B by luciferase-coupled assay
[2] = molecular target: cGMP-specific 3',5'-cyclic phosphodiesterase (Homo sapiens, UniProt O76074); assay: Inhibition of human PDE5 by scintillation proximity assay
[3] = molecular target: 3',5'-cyclic-AMP phosphodiesterase 4D (Homo sapiens, UniProt Q08499); assay: Inhibition of PDE4D by luciferase-coupled assay
[4] = Inhibition of bovine PDE3 by scintillation proximity assay; design: species or system Bos taurus
[5] = Selectivity for PDE4B over PDE4D

Sequence of 3',5'-cyclic-AMP phosphodiesterase 4D (Q08499 whole entry): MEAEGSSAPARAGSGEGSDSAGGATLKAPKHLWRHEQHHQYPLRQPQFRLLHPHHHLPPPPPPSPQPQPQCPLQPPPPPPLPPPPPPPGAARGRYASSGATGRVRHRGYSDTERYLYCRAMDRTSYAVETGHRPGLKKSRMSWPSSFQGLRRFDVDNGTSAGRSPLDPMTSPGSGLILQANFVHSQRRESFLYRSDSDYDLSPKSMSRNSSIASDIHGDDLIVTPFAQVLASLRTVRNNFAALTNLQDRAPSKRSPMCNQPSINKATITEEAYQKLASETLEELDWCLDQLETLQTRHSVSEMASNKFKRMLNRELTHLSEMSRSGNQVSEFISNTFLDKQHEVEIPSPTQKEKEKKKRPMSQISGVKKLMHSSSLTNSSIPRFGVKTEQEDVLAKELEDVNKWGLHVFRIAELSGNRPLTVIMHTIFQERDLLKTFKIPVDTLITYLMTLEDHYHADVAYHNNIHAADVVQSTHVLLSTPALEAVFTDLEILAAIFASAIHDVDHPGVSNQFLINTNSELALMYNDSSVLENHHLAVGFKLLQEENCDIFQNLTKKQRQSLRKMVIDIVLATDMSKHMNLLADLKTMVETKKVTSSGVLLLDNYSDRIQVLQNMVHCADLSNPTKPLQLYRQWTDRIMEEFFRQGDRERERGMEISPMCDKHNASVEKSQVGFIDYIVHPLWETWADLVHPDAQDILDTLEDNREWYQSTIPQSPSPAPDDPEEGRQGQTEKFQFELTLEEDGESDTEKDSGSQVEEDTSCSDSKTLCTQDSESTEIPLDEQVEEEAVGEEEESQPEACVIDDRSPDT
Sequence of 3',5'-cyclic-AMP phosphodiesterase 4B (Q07343 whole entry): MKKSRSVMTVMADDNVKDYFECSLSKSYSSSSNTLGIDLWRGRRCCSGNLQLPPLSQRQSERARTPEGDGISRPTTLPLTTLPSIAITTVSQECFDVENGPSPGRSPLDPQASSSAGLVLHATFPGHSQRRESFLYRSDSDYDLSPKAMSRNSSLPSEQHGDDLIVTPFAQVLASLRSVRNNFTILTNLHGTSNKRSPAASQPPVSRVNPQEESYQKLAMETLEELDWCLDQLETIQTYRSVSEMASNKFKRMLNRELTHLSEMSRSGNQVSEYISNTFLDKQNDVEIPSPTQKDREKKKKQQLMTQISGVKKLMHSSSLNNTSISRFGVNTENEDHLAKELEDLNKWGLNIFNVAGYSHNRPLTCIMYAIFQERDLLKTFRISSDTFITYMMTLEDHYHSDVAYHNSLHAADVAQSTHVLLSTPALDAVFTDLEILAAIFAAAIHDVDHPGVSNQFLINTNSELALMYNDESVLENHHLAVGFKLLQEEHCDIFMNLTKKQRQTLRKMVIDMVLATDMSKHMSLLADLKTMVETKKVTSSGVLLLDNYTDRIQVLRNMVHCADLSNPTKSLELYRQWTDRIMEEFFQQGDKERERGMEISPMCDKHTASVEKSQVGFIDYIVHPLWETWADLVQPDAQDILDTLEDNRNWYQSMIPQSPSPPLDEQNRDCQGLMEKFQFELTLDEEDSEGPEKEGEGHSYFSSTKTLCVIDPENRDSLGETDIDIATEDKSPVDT

Row | Compound | IC50 [1] | IC50 [2] | IC50 [3] | pIC50 [4] | Selectivity Index [5]
1 | CNC(=O)c1c(NC(=O)c2c(F)cccc2F)sc2c1CCC(C(C)(C)C)C2 (stereo unspecified) | > 10 µM | – | – | – | –
2 | CC(C)(C)C1CCc2c(sc(NC(=O)c3ccncc3)c2C(N)=O)C1 (stereo unspecified) | 0.2 µM | > 10 µM | 0.316 µM | < 5 | –
3 | CC(C)(C)C1CCc2c(sc(NC(=O)c3ccccc3[N+](=O)[O-])c2C(N)=O)C1 (stereo unspecified) | 0.0251 µM | – | 0.126 µM | – | –
4 | CC1CCCc2sc(NC(=O)c3ccccc3[N+](=O)[O-])c(C(N)=O)c21 (stereo unspecified) | 5.01 µM | – | 31.6 µM | – | –
5 | CCCCCC1CCc2c(sc(NC(=O)c3ccccc3[N+](=O)[O-])c2C(N)=O)C1 (stereo unspecified) | 0.1 µM | – | 2.51 µM | – | –
6 | CC(C)(C)C1CCc2sc(NC(=O)c3ccccc3[N+](=O)[O-])c(C(N)=O)c2C1 (stereo unspecified) | 1.26 µM | – | 6.31 µM | – | –
7 | CC1(C)CCc2c(sc(NC(=O)c3ccccc3[N+](=O)[O-])c2C(N)=O)C1 | 0.0501 µM | – | 0.398 µM | – | –
8 | CC1CCc2c(sc(NC(=O)c3cccc([N+](=O)[O-])c3)c2C(N)=O)C1 (stereo unspecified) | 0.631 µM | – | > 2.51 µM | – | –
9 | CC1CCc2sc(NC(=O)c3ccccc3[N+](=O)[O-])c(C(N)=O)c2C1 (stereo unspecified) | 2 µM | – | 6.31 µM | – | –
10 | NC(=O)c1c(NC(=O)c2ccccc2[N+](=O)[O-])sc2c1CCCC2 | 1.26 µM | – | 6.31 µM | – | –
11 | CCC1CCc2c(sc(NC(=O)c3ccccc3[N+](=O)[O-])c2C(N)=O)C1 (stereo unspecified) | 0.01 µM | – | 0.126 µM | – | 10
12 | Cc1cccc(C)c1C1CCCc2sc(NC(=O)c3ccccc3[N+](=O)[O-])c(C(N)=O)c21 (stereo unspecified) | 5.01 µM | – | 2.51 µM | – | –
13 | CC1CCc2c(sc(NC(=O)c3ccc([N+](=O)[O-])cc3)c2C(N)=O)C1 (stereo unspecified) | > 2.51 µM | – | > 2.51 µM | – | –
14 | NC(=O)c1c(NC(=O)c2ccccc2[N+](=O)[O-])sc2c1CCC(c1ccccc1)C2 (stereo unspecified) | 0.398 µM | – | 1.58 µM | – | –
15 | CC(C)(C)C1CCc2c(sc(NC(=O)c3c(F)cccc3F)c2C(N)=O)C1 (stereo unspecified) | 0.0794 µM | – | – | – | –
